In patent US9050341B2, “Methods of treating drug resistant and other tumors by administering 6,7-dialkoxy quinazoline derivatives” (NATCO PHARMA LIMITED, priority 2009, dated 2015):

Legend:
Assay in all cases: KinomeScan kinase profiling
Format in all cases: binding
AMPK-alpha2 = target: T1, AMPK-alpha2 (Homo sapiens, UniProt P54646)
T1 construct: host or cells: E. coli host derived from BL21 (T7 phage lysate)
Text: (§1) The kinases were ABL1(F317L), ABL1(H396P), ABL1(Q252H), ABL1(Y253F), ADCK3, ADCK4, ALK, ARK5, AXL, BLK, BRSK2, CDK7, CIT, CLK4, CSNK1D, CSNK1E, DAPK1, DAPK3, DCAMKL3, DMPK, EGFR, EGFR(E746-A750DEL), EGFR(G719C), EGFR(G719S), EGFR(L747-E749DEL, A750P), EGFR(L747-S752 DEL, P753S), EGFR(L747-T751DEL, Sin), EGFR(L858R), EGFR(L861Q), EGFR(S752-I759DEL), EPHA5, EPHA6, ERBB2, ERBB4, ERK3, ERK4, FGR, FLT3(D835H), FLT3(D835Y), FLT3(ITD), FLT3(N841 I), FRK, GAK, GCN2(KIN.DOM.2, S808G), HCK, IRAK3, JAK1(KIN.DOM.1), KIT, KIT(D816V), KIT(V559D), KIT(V559D,T670I), LCK, LOK, LTK, LYN, MAP3K3, MAP4K4, MAP4K5, MET, MINK, MKNK1, MKNK2, MST4, MYLK2, PDGFRB, PIM3, PKN2, PRKD1, PRKD2, PRKD3, PRKG1, RIPK2, RPS6KA4(KIN.DOM.2), SIK2, SLK, SNARK, SRC, STK36, TNIK, TNNI3K, TYK2(KIN.DOM.2).
(§2) Kinase assays: Assays were performed as described in Fabian et al. (2005) Nature Biotechnology, vol. 23, p. 329. Kinase-tagged T7 phage strains were grown in parallel in 24 or 96-well blocks in an E. coli host derived from the BL21 strain. E. coli were grown to log-phase and infected with T7 phage from a frozen stock (multiplicity of infection ˜0.1) and incubated with shaking at 32° C. until lysis (˜90 minutes). The lysates were centrifuged and filtered to remove cell debris. […] The liganded beads were blocked with excess biotin and washed with blocking buffer (SeaBlock (Pierce), 1% BSA, 0.05% Tween 20, 1 mM DTT) to remove unbound ligand and to reduce non-specific phage binding.
(§3) Test compounds were prepared as 40× stocks in DMSO and diluted into the aqueous environment. 2.5% DMSO was added to control assays lacking a test compound. All reactions were performed in polystyrene 96-well plates that had been pretreated with blocking buffer in a final volume of 0.04 ml. […] The phage titer in the eluates was measured by quantitative PCR.

BIKE = target: T2, BIKE (Homo sapiens, UniProt Q9NSY1)
T2 construct: purchased Ambit Biosciences Corp (KinomeScan); host or cells: E. coli host derived from the BL21 strain, T7 phage
Text: as §1, §2, §3

CDK5 = target: T3, CDK5 (Homo sapiens, UniProt Q00535)
T3 construct: host or cells: T7 phage in E. coli (BL21-derived)
Text: as §1, §2, §3

DAPK2 = target: T4, DAPK2 (Homo sapiens, UniProt Q9UIK4)
T4 construct: purchased Ambit Biosciences Corp (KinomeScan); host or cells: T7 phage in E. coli host derived from BL21
T4 sequence (Q9UIK4 whole entry): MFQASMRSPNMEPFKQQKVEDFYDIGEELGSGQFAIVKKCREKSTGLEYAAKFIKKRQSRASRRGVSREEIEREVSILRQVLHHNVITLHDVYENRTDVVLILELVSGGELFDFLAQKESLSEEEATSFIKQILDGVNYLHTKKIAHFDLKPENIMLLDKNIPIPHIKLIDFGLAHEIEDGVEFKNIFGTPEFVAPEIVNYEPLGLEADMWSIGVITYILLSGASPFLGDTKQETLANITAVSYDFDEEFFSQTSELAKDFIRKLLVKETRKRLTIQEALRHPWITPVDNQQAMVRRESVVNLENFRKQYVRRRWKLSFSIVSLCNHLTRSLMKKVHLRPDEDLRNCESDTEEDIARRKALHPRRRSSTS
Text: as §1, §2, §3

EGFR (G719S) = target: T5, EGFR (G719S) (Homo sapiens, UniProt P00533, G719S)
T5 construct: purchased Ambit Biosciences Corp (KinomeScan); host or cells: T7 phage in E. coli host derived from BL21
Text: as §1, §2, §3

FLT4 = target: T6, FLT4 (Homo sapiens, UniProt P35916)
T6 construct: host or cells: E. coli host derived from BL21, infected with T7 phage
Text: as §1, §2, §3

INSR = target: T7, INSR (Homo sapiens, UniProt P06213)
T7 construct: host or cells: T7 phage in E. coli host derived from BL21
Text: as §1, §2, §3

JNK1 = target: T8, JNK1 (Homo sapiens, UniProt P45983)
T8 construct: host or cells: T7 phage in E. coli host derived from BL21
Text: as §1, §2, §3

MAP4K3 = target: T9, MAP4K3 (Homo sapiens, UniProt Q8IVH8)
T9 construct: host or cells: E. coli derived from BL21, infected with T7 phage
Text: as §1, §2, §3

MLCK = target: T10, MLCK (Homo sapiens, UniProt Q32MK0)
T10 construct: host or cells: T7 phage in E. coli host derived from BL21
Text: as §1, §2, §3

MLK1 = target: T11, MLK1 (Homo sapiens, UniProt P80192)
T11 construct: host or cells: T7 phage in E. coli host derived from BL21
T11 sequence (P80192 whole entry): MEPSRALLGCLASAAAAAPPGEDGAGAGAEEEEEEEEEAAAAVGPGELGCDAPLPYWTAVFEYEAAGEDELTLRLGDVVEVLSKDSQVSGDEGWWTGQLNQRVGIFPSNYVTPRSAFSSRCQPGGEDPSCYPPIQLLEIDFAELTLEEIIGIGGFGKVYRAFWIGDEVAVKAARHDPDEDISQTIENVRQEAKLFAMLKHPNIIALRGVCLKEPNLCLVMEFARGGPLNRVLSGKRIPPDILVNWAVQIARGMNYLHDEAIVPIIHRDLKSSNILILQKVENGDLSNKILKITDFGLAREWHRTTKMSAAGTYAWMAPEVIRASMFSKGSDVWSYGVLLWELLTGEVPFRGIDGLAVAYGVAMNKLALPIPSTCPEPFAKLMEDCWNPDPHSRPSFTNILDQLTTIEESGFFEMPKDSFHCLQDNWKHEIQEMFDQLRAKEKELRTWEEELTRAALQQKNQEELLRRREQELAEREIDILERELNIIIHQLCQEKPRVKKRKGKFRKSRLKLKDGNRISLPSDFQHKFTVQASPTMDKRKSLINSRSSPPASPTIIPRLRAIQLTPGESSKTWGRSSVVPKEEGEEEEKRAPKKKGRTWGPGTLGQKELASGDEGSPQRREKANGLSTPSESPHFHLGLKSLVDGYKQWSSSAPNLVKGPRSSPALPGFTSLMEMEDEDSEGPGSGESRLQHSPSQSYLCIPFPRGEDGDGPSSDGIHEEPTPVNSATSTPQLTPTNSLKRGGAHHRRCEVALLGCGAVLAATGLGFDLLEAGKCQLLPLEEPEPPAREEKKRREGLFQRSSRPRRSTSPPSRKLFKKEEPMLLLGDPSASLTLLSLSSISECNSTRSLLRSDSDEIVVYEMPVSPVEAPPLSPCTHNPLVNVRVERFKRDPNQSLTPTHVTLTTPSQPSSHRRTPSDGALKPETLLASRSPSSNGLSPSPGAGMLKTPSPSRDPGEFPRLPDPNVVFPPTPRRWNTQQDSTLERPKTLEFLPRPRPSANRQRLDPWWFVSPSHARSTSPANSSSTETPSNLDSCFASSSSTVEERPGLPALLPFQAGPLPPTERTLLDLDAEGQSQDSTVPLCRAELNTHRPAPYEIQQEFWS
Text: as §1, §2, §3

NEK7 = target: T12, NEK7 (Homo sapiens, UniProt Q8TDX7)
T12 construct: host or cells: T7 phage in E. coli host derived from BL21
Text: as §1, §2, §3

PFTAIRE2 = target: T13, PFTAIRE2 (Homo sapiens, UniProt Q96Q40)
T13 construct: host or cells: E. coli host derived from the BL21 strain, infected with T7 phage
Text: as §1, §2, §3

PIK3C2B = target: T14, PIK3C2B (Homo sapiens, UniProt O00750)
T14 construct: host or cells: E. coli host derived from the BL21 strain, infected with T7 phage
T14 sequence (O00750 whole entry): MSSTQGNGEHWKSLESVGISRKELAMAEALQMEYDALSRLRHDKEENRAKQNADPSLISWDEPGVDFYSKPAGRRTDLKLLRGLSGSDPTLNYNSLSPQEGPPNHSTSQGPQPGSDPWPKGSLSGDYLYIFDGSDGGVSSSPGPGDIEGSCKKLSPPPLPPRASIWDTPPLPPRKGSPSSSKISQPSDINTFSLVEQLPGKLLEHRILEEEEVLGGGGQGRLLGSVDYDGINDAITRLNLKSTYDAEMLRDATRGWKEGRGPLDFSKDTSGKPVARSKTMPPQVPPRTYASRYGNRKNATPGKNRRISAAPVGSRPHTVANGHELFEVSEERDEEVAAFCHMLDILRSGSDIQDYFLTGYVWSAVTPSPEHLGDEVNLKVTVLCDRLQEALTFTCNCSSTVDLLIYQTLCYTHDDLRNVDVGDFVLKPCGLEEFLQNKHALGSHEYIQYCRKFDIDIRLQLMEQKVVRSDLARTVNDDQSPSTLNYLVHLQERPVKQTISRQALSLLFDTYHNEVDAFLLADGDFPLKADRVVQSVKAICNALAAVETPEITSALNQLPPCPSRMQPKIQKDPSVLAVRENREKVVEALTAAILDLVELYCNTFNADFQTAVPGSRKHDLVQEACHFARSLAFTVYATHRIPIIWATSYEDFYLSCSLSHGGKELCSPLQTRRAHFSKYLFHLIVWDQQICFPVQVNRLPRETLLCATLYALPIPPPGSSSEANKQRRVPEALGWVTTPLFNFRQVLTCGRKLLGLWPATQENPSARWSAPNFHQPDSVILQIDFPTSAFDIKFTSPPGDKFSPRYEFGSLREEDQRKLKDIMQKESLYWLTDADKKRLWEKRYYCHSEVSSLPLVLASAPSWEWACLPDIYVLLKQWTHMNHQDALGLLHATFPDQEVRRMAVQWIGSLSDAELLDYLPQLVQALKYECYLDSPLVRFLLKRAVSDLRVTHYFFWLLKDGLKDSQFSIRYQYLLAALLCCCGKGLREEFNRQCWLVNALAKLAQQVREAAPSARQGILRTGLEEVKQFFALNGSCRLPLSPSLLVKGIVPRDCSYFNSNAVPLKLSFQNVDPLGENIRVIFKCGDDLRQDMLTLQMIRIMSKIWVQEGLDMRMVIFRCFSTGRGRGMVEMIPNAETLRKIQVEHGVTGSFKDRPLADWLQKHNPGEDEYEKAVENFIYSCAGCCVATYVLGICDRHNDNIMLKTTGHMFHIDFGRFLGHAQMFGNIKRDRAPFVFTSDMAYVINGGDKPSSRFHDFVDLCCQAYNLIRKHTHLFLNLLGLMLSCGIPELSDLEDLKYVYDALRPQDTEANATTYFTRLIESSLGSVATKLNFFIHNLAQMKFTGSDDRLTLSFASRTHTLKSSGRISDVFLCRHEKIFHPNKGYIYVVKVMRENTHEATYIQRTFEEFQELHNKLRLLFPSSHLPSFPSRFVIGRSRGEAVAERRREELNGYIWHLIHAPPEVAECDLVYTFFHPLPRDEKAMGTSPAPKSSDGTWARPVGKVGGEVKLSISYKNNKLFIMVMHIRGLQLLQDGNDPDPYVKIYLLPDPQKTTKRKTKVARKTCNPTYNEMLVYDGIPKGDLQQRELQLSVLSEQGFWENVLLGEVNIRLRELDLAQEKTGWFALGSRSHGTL
Text: as §1, §2, §3

PKMYT1 = target: T15, PKMYT1 (Homo sapiens, UniProt Q99640)
T15 construct: purchased Ambit Biosciences Corp (KinomeScan); host or cells: E. coli host derived from BL21, infected with T7 phage
Text: as §1, §2, §3

PRKG2 = target: T16, PRKG2 (Homo sapiens, UniProt Q13237)
T16 construct: purchased Ambit Biosciences Corp (KinomeScan); host or cells: E. coli host derived from BL21, infected with T7 phage
Text: as §1, §2, §3

PRKR = target: T17, PRKR (Homo sapiens, UniProt P19525)
T17 construct: purchased Ambit Biosciences Corp (KinomeScan); host or cells: E. coli host derived from BL21, infected with T7 phage
Text: as §1, §2, §3

PYK2 = target: T18, PYK2 (Homo sapiens, UniProt Q14289)
T18 construct: host or cells: E. coli host derived from BL21, T7 phage lysate
Text: as §1, §2, §3

RET (M918T) = target: T19, RET (M918T) (Homo sapiens, UniProt P07949, M918T)
T19 construct: host or cells: E. coli host derived from BL21, T7 phage lysate
Text: as §1, §2, §3

RIOK1 = target: T20, RIOK1 (Homo sapiens, UniProt Q9BRS2)
T20 construct: host or cells: E. coli host derived from BL21, T7 phage lysate
Text: as §1, §2, §3

STK35 = target: T21, STK35 (Homo sapiens, UniProt Q8TDR2)
T21 construct: host or cells: E. coli host derived from the BL21 strain, T7 phage lysate
T21 sequence (Q8TDR2 whole entry): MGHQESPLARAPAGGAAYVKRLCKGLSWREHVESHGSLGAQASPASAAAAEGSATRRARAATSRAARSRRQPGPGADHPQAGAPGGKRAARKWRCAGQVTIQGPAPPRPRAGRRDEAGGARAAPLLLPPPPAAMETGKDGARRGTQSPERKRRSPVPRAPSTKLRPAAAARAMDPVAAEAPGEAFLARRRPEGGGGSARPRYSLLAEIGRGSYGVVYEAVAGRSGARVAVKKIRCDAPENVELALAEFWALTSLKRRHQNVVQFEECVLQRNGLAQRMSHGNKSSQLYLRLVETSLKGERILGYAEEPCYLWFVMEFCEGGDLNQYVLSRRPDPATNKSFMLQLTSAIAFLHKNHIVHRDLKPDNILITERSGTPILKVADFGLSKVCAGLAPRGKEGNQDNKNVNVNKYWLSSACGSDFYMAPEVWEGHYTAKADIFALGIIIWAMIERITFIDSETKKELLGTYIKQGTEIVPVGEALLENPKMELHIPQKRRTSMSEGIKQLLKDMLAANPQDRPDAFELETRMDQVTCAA
Text: as §1, §2, §3

TIE1 = target: T22, TIE1 (Homo sapiens, UniProt P35590)
T22 construct: host or cells: E. coli host derived from the BL21 strain, T7 phage lysate
Text: as §1, §2, §3

ZAK = target: T23, ZAK (Homo sapiens, UniProt Q9NYL2)
T23 construct: host or cells: E. coli host derived from the BL21 strain, infected with T7 phage
T23 sequence (Q9NYL2 whole entry): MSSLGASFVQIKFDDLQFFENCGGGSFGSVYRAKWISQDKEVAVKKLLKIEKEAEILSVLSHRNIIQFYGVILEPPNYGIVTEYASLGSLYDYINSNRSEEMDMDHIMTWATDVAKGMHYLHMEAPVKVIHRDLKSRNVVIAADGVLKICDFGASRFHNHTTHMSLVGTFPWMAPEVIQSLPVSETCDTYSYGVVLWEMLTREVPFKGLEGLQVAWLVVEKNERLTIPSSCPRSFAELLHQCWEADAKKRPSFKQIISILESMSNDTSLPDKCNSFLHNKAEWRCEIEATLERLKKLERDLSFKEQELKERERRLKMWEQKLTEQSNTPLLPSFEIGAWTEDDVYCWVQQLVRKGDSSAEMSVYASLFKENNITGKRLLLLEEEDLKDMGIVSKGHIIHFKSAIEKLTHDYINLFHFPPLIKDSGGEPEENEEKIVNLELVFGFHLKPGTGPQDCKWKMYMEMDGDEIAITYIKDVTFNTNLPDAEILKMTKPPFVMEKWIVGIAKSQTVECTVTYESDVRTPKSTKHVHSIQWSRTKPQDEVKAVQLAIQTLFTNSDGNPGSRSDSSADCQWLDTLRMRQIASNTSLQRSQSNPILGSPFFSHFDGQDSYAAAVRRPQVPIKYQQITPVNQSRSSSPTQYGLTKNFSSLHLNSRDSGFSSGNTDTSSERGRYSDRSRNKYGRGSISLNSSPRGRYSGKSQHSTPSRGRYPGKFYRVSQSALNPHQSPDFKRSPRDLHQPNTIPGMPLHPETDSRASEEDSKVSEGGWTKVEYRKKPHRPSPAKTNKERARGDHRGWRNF
Text: as §1, §2, §3

T1 sequence (P54646 whole entry): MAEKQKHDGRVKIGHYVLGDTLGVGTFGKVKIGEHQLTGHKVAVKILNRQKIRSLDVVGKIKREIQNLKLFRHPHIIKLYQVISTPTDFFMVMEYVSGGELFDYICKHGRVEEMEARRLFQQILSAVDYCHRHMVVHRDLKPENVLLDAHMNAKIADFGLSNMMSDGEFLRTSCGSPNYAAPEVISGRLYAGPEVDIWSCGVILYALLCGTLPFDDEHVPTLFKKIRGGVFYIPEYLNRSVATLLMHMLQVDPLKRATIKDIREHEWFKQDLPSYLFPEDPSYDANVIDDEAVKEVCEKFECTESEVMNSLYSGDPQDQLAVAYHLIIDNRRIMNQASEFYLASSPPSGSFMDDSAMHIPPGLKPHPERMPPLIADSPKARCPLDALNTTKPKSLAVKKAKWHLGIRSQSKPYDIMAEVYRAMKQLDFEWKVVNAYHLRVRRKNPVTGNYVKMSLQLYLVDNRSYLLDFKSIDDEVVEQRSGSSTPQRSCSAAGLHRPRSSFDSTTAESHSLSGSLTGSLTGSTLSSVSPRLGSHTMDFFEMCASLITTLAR

**Q.** Which “% Ctrl @ 10000 nM” value (AMPK-alpha2) does the source give for C#Cc1cccc(Nc2ncnc3cc(OC)c(OCCCN4CCOCC4)cc23)c1 [NRC-2694, N-(3-ethylnylphenyl)-7-methoxy-6-[3-(4-morpholinyl)propoxy]-4-quinazolinamine] here?
**A.** The value was 61 % Ctrl.

**Q.** And the “% Ctrl @ 10000 nM” value (BIKE)?
**A.** Its value is 36 % Ctrl.

**Q.** What about the “% Ctrl @ 10000 nM” value (CDK5) of the same compound?
**A.** Its value is 100 % Ctrl.

**Q.** What about the “% Ctrl @ 10000 nM” value (DAPK2) of the same compound?
**A.** The value was 61 % Ctrl.

**Q.** And the “% Ctrl @ 10000 nM” value (EGFR (G719S))?
**A.** Its value is 0 % Ctrl.

**Q.** And the “% Ctrl @ 10000 nM” value (FLT4)?
**A.** The value was 66 % Ctrl.

**Q.** And the “% Ctrl @ 10000 nM” value (INSR)?
**A.** The value was 90 % Ctrl.

**Q.** What about the “% Ctrl @ 10000 nM” value (JNK1) of the same compound?
**A.** The value was 99 % Ctrl.

**Q.** And the “% Ctrl @ 10000 nM” value (MAP4K3)?
**A.** Its value is 52 % Ctrl.

**Q.** What about the “% Ctrl @ 10000 nM” value (MLCK) of the same compound?
**A.** Its value is 77 % Ctrl.

**Q.** What about the “% Ctrl @ 10000 nM” value (MLK1) of the same compound?
**A.** Its value is 100 % Ctrl.

**Q.** What about the “% Ctrl @ 10000 nM” value (NEK7) of the same compound?
**A.** Its value is 78 % Ctrl.

**Q.** And the “% Ctrl @ 10000 nM” value (PFTAIRE2)?
**A.** Its value is 71 % Ctrl.

**Q.** And the “% Ctrl @ 10000 nM” value (PIK3C2B)?
**A.** Its value is 93 % Ctrl.

**Q.** And the “% Ctrl @ 10000 nM” value (PKMYT1)?
**A.** Its value is 74 % Ctrl.

**Q.** And the “% Ctrl @ 10000 nM” value (PRKG2)?
**A.** The value was 40 % Ctrl.

**Q.** And the “% Ctrl @ 10000 nM” value (PRKR)?
**A.** Its value is 51 % Ctrl.

**Q.** What about the “% Ctrl @ 10000 nM” value (PYK2) of the same compound?
**A.** The value was 71 % Ctrl.

**Q.** And the “% Ctrl @ 10000 nM” value (RET (M918T))?
**A.** Its value is 37 % Ctrl.

**Q.** And the “% Ctrl @ 10000 nM” value (RIOK1)?
**A.** Its value is 36 % Ctrl.

**Q.** And the “% Ctrl @ 10000 nM” value (STK35)?
**A.** The value was 52 % Ctrl.

**Q.** What about the “% Ctrl @ 10000 nM” value (TIE1) of the same compound?
**A.** The value was 52 % Ctrl.

**Q.** What about the “% Ctrl @ 10000 nM” value (ZAK) of the same compound?
**A.** The value was 74 % Ctrl.
